Holding throughout (assay type): cell-based
One data set concerns the target T1, AR-LBD and SRC1 (Homo sapiens, UniProt P10275).
T1 construct: AR-LBD amino acids 658–919 expressed as a fusion protein with Gal4-DBD; expressed in transfected cells; host or cells: HEK 293
T1 sequence (P10275 658-919): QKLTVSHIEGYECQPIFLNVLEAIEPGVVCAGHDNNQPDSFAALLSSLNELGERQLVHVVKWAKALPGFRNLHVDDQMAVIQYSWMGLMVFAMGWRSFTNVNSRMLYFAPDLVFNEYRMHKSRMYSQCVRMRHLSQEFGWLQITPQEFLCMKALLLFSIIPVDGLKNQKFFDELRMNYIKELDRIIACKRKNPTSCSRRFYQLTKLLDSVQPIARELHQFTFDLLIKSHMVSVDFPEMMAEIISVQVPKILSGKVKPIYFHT
The data set is described as follows: SRC1 mammalian 2-hybrid (M2H) assay. Conditions: HEK 293 cells; 25 nM DHT; 27 h compound exposure; read-out: M2H AR-SRC1 CoA Recruitment IC50. An excerpt:
The 5xGAL4-TATA-luciferase reporter plasmid was a gift from Dr. Richard Maurer from the Oregon Health and Science University, and constructs pGAL4-hAR-658–919 (AR-LBD amino acids 658–919 expressed as a fusion protein with Gal4-DBD), pVP16-SRC1 (full--length SRC1 expressed as a fusion with VP16 activation domain) and pVP16-Empty vector were kindly provided to us by Dr. Elizabeth Wilson, from UNC Chapel Hill. pVP16-TIF2 was generated as described previously. HEK 293 cells were transiently co-transfected with 5 ng of pGal4-AR-LBD, 10 ng of either pVP16-TIF2 or pVP16-SRC1, and 20 ng of the 5xGal4-TATA-Luc reporter as described previously. HEK 293 cells were bulk co-transfected with the three plasmids that had been individually incubated with Fugene 6 at a 3:1 ratio for 25 min at room temperature (RT) in serum free media (SFM) and then combined with HEK 293 cells that were suspended in DMEM (Cellgro10013CV) with 2 mM L-glutamine (Invitrogen) that was supplemented with 10% fetal bovine serum, and 5000 cells in a volume of 40 μL were seeded into the wells of white opaque 384-well assay plates (Greiner Bio-one, #781080) and cultured overnight at 37 °C, 5% CO2, and 95% humidity. […] 25 μL of BrightGlo® reagent was added to the plate and the relative luminescence units (RLUs) were captured on a SpectraMax M5e microtiter plate reader (Molecular Devices, LLC, San Jose, CA).

Data set [1] is described as follows: C4–2 PSA6.1-Luc viability counter screen. Conditions: human, C4–2 cells (C4–2 PSA6.1-Luc); cytotoxicity counter screen; read-out: C4–2 PSA6.1-Luc viability CS GI50.
The subject of the next data set is C4–2 cells. The data set can be described thus: Prostate cancer cell line growth inhibition assay, C4–2. The settings on record: read-out: C4–2 GI50 (AR +). Here is the method: The PC-3, DU-145, LNCaP, C4–2, and 22Rv1 PC cell line growth inhibition assays have been described previously. On day 1, each PC cell line was harvested, counted, and seeded into two 384-well assay plates, a time zero (T0) and a time 72 h (T72) plate. PC cell lines were all seeded at 1000 cells per well in 45 μL of tissue culture media in uncoated white clear bottom 384-well assay plates (VWR, # 82050–076) using a Matrix electronic multichannel pipette (Thermo Fisher Scientific, Waltham, MA) and cultured overnight at 37 °C, 5% CO2, and 95% humidity. On day 2, 25 μL of the Cell Titer Glo (CTG) (Promega Corporation, Madison, WI) detection reagent was dispensed into the wells of the T0 assay plate using a Matrix electronic multichannel pipette, and the RLUs were captured on the SpectraMax M5e (Molecular Devices LLC, Sunnyvale, CA) microtiter plate reader. Also on day 2, 5 μL of compounds were transferred into the test wells of the T72 384-well assay plates which were returned to the incubator for 72 h. Control wells received DMSO alone. On day 5, 25 μL of the CTG detection reagent was dispensed into the wells of the T72 assay plate using a Matrix electronic multichannel pipette, and the RLU’s were captured on the SpectraMax M5e microtiter plate reader platform.
In 384-well assays, DMSO minimum (n = 32) and maximum (n = 32) plate control wells were utilized to calculate signal-to-background ratios (S:B) and Z’-factor coefficient assay performance quality control statistics, and to normalize the signals of compound treated wells and to represent 0% and 100% respectively. For the 96-well AR-LBD H^3-DHT radioligand binding assay, eight minimum and maximum plate control wells were utilized to normalize the data. For the PC cell line growth inhibition assays we used the DMSO control data from the T0 and T72 assay plates to assess the dynamic range of the T0 to T72 cell growth, and to calculate S:B ratios and Z’-factor coefficient statistics for the assay signal window (T0 to T72). To normalize the 72 h compound exposure PC growth inhibition data, the signals from the compound treated wells were processed and expressed as% of the T72 DMSO plate controls. IC50 and GI50 values for each of the bioassays were calculated using Graph-Pad Prism 9 software to plot and fit data to curves using the Sigmoidal dose response variable slope equation Y = Bottom + [Top-Bottom]/ [1 + 10^^(LogEC50-X)*HillSlope].

pIC50: −log10 of the molar value. Read-outs that look alike come from different tables or passages of the source.

In general, pIC50 refers to the IC50 on a negative log10 scale, so that one unit is a factor of ten. A word on the GI50: it is the concentration at which growth is held to half of that of the control. Take `Cc1ccccc1-c1cc(O)c2c(c1)CN(c1nc(C(N)=O)cs1)CCO2` [S1–1]: the pIC50 at AR-LBD and SRC1 is 5.45. Also, the GI50 in data set [1] was above 100 µM; in the data set with C4–2 cells (C4-2, 72 h) it was 31.7 µM.
In the case of `Cc1ccccc1-c1cc(O)c2c(c1)CN(c1nccs1)CCO2` [S1–3], at AR-LBD and SRC1, the pIC50 was 5.28. Besides, the concentration for 50% growth inhibition (GI50) in the data set with C4–2 cells (72 h) was 45.5 µM.
With `Cc1nsc(NC(=O)N2CCC(Sc3ccccc3C)CC2)n1` [S2–6], the pIC50 at AR-LBD and SRC1 is 6.34. Besides, the GI50 in data set [1] is above 100 µM; with C4–2 cells (C4-2, 72 h), 14.1 µM.
For the compound `Cc1c(-c2ccccc2F)[nH]c2ccc(CNC(=O)CCc3cn[nH]c3)cc12` [S3–11], at AR-LBD and SRC1, the negative-log IC50 (pIC50) was 5.32. In addition, the GI50 is above 100 µM in data set [1] and 7.93 µM in the data set with C4–2 cells (C4-2, 72 h).
The like results for `Cc1c(-c2ccccc2F)[nH]c2ccc(CNC(=O)CCc3cnccn3)cc12` [S3–12] were, in that order, 5.41, above 100 µM and 1.92 µM.
The like results for `CC(=O)NCCC(=O)NCc1ccc2[nH]c(-c3ccccc3F)c(C)c2c1` [S3–13] were, in that order, 4.93, above 100 µM and 69.8 µM.
As for `Cc1c(-c2ccccc2F)[nH]c2ccc(CNC(=O)c3ccc(CO)o3)cc12` [S3–14], the pIC50 on AR-LBD and SRC1 is 5.60. In addition, the GI50 in data set [1] was above 100 µM; with C4–2 cells (C4-2, 72 h), 33 µM.
For `Cc1c(-c2ccc(F)cc2)[nH]c2ccc(CNC(=O)c3ccc(CO)o3)cc12` [S3–15], at AR-LBD and SRC1, the pIC50 is 5.52. The GI50 in data set [1] is above 100 µM; with C4–2 cells (C4-2, 72 h) it was 16.8 µM.

The record behind these values is article PMC12366525, “Characterization of allosteric modulators that disrupt androgen receptor co-activator protein-protein interactions to alter transactivation–Drug leads for metastatic castration resistant prostate cancer” (SLAS discovery : advancing life sciences R & D, 2023).
